Assay results: US12214036B2, “Combination therapy comprising AXL/MER and PD-1/PD-L1 inhibitors” (Incyte Corporation, priority 2020, dated 2025)

Tested on: CTG-1861 tumors
Assay: PDX model CTG-1861 (gastrointestinal stromal tumor)
Type: in vivo
Settings: athymic nude mice
Source text: MBT-2 cells were obtained from the Japanese Collection of Research Bioresources Cell Bank and were maintained in DMEM supplemented with 10% FBS. MC38 cells were obtained from the NCI. 4T1 cells were obtained from ATCC and maintained in RPMI media supplemented with 10% FBS. For MBT-2 experiments, 5×10^5 MBT-2 cells were inoculated subcutaneously into the right hind flank of 6- to 8-week-old C3H mice or athymic nude mice (Charles River Laboratories, Wilmington, Mass.). For MC38 studies, 12-week old female C57BL/6 mice were inoculated with brei of MC38 tumors (in-vivo passage 6) into the right hind flank. For 4T1 studies, 7.5×10^5 4 T1 cells were inoculated subcutaneously into the right hind flank of 6- to 8-week-old female BALB/c mice or athymic nude mice (Charles River Laboratories). […] Mice were monitored for tumor growth and overt tolerability over the course of the experiment. […] Tumor volume was calculated using the formula (L×W^2)/2, where L and W refer to the length and width dimensions, respectively. Tumor growth inhibition (TGI) was calculated using the formula (1−(VT/VC))×100, where VT is the tumor volume of the treatment group on the last day of treatment, and VC is the tumor volume of the control group on the last day of treatment. […]
The activity of Compound 1 in sarcoma PDX models was evaluated as described in Example H for PDX models. […] Three mice per group were analyzed. […]

With `CC(C)C(=O)N1CCC(c2cc(-c3ccc(NC(=O)c4cn(C(C)C)c(=O)n(-c5ccccn5)c4=O)cc3)c3c(N)ncnn23)CC1` [Compound 1, N-(4-(4-Amino-7-(1-isobutyrylpiperidin-4-yl)pyrrolo[1,2-f][1,2,4]triazin-5-yl)phenyl)-1-isopropyl-2,4-dioxo-3-(pyridin-2-yl)-1,2,3,4-tetrahydropyrimidine-5-carboxamide] the “TGI (%)” value was 74%.
